These results are taken from patent publication US8217030B2, “Association of a sinus node if current inhibitor and a beta blocker” (Les Laboratoires Servier, priority 2008, dated 2012).

Experiment [1] concerns patients with angina pectoris treated with β-blockers. In words: treadmill exercise tolerance test (ETT), Bruce protocol, clinical study. It counts as in vivo, human. As to the method:
(§1) The patients selected for this clinical study are men and women from 18 to 75 years of age who have suffered from angina pectoris for at least 3 months and been treated with β-blockers such as atenolol (50 mg o.d.) or any other β-blocker at an equivalent dose for at least 3 months. These patients have, despite their treatment, a positive exercise tolerance test (ETT) and daily symptoms of angina pectoris.
(§2) This double-blind, parallel-group, international clinical study was carried out in 889 patients. The patients, all of whom are receiving atenolol, are randomised into two groups: • in addition to the β-blocker, the first group is given ivabradine (hydrochloride) at a dose of 5 mg twice a day for two months and then at a dose of 7.5 mg twice a day for a further two months; • in addition to the β-blocker, the second group is given a placebo for 4 months.
The patients are subjected to a treadmill exercise tolerance test (ETT) in accordance with the Bruce protocol before ivabradine is administered (that is when receiving β-blocker on its own), and after 4 months of treatment with the association between ivabradine and atenolol. The principal parameters measured in the course of the effort test are: • total exercise duration (TED)—the TED includes the time taken for the treadmill to come to a stop or, that is, a duration of about 10 seconds starting from the patient's request to stop the exercise; • the time until the “angina pectoris” pain forces the patient to stop the exercise (TLA); • the time until the onset of the “angina pectoris” pain (TAO); • the time taken for a 1 mm ST segment depression (TST) to appear on the electrocardiographic recording, this being a reflection of ischaemia and corresponding to the electrical sign of pain in the cardiac muscle.
These measurements are made at trough activity of the association of active ingredients or, that is, 12±1 hours and 24±2 hours after administration of the active ingredients.
The mean improvements in the various parameters measured during the treadmill exercise test, between the value measured before the start of treatment with ivabradine and the end of the treatment period, are set out in the table below: […]

The test system is the same in experiment [2]. The experiment is described as follows: heart rate at rest in clinical study. The conditions noted are these: after 4 months of treatment; heart rate at rest on entry 67±7 beats per minute. It counts as in vivo, human. As to the method:
as §1, §2
The patients have a mean age of 60±8 years. On entry into the study, the mean systolic/diastolic arterial pressure and heart rate of the patients at rest are respectively, on average: 127±12/78±7 mmHg and 67±7 beats per minute. After 4 months of treatment with the association, the heart rate has reduced by 9±10 bpm (β-blocker+placebo 1±10 bpm).

Where [3] appears, read: mean ± SD, before ivabradine vs after 4 months of treatment, on top of atenolol, at trough activity.

Consider `COc1cc2c(cc1OC)CC(=O)N(CCCN(C)C[C@H]1Cc3cc(OC)c(OC)cc31)CC2` [ivabradine, 3-{3-[{[(7S)-3,4-dimethoxybicyclo[4.2.0]octa-1,3,5-trien-7-yl]methyl}(methyl)amino]propyl}-7,8-dimethoxy-1,3,4,5-tetrahydro-2H-3-benzazepin-2-one], for which the exercise tolerance entry in experiment [1] (patients already receiving a standard dose of β-blockers) was “capable of improving exercise tolerance”.
Regarding `CC(C)NCC(O)COc1ccc(CC(N)=O)cc1` (stereo not drawn) [β-blocker + placebo, atenolol], the “reduction of heart rate” value in experiment [2] was 1±10 bpm. In addition, in experiment [1] (setting [3]), the “Improvement in time taken for a 1 mm ST segment depression (TST)” value worked out at 15 ± 87 s, the “Improvement in time until angina pectoris pain forces the patient to stop the exercise (TLA)” value was 9 ± 64 s and the “Improvement in time until onset of angina pectoris pain (TAO)” value was 23 ± 79 s. Besides, the “Improvement in total exercise duration (TED)” value in experiment [1] (mean ± SD, before ivabradine vs after 4 months of treatment, on top of atenolol, ivabradine 5 mg b.i.d. 2 months then 7.5 mg b.i.d. 2 months, at trough activity) was 8 ± 64 s.
